Experimental findings from ChEMBL document CHEMBL1135755, “SAR by MS: a ligand based technique for drug lead discovery against structured RNA targets” (J Med Chem, 2002) are described below.

Data set [1] can be described thus: Dissociation constant was determined. In kind it is physicochemical.
For data set [2], the system named is Nucleic Acid. Description: Inhibitory activity against RNA target using functional assay.

`NCC[C@@H](NC(=O)c1ccc(-c2cccc(NC(=O)c3ccc4nc(O)c(O)nc4c3)c2)o1)C(=O)N1CCNCC1`: in data set [1], the affinity, expressed as Kd, was 6.5 µM. This compound also returned an IC50 in data set [2] of 14 µM.

For orientation: Kd means a measure of binding affinity in units of concentration. Read a low Kd as tighter binding. By IC50 is commonly meant the point on the concentration scale where inhibition reaches its midpoint.
